# Entries after “also recorded” stand apart in the source; their conditions may differ. Like-named read-outs stand apart in the source and are kept apart here.
# Columns and labels:
# M-NFS-60 cells = experiment: cells; type: cell-based; settings: Mus musculus
# TGCT or DTGCT = settings: cited from earlier work
# [1] = human, in vivo, 800 mg
# [2] = rat, 4-week, cited from earlier work
# [3] = rat, six-month, cited from earlier work
# [4] = human; recommended dose 800 mg daily; cited from earlier work
# clinical = settings: human, in vivo, 800 mg
smiles,measurement,setting,value
FC(F)(F)c1ccc(CNc2ccc(Cc3c[nH]c4ncc(Cl)cc34)cn2)cn1 [pexidartinib],IC50,"M-NFS-60 cells; read-out: average IC50, inhibition of M-NFS-60 cell proliferation, 10 ng/mL CSF1",0.0157 µM
same,IC50,"M-NFS-60 cells; read-out: average IC50, inhibition of M-NFS-60 cell proliferation, 1,000 ng/mL CSF1",0.0596 µM
same,ORR,"TGCT or DTGCT; ENLIVEN phase 3 randomized trial, maintenance dose 400 mg twice daily",39%
same,overall response rate (ORR),"TGCT or DTGCT; TGCT or DTGCT patients, 1000 mg daily, phase 2 clinical study",52%
same,maximum tolerated dose,"TGCT or DTGCT; TGCT patients, clinical use",400 mg twice daily
same,liver injury / hepatotoxicity,TGCT or DTGCT; patients,mixed or cholestatic hepatotoxicity; also recorded: black box warning of hepatotoxicity
same,maximum tolerated dose and chosen phase 2 dose,TGCT or DTGCT; patients,1000 mg per day
same,AUC0-24 clinical exposure (estimated from label AUC0-12),[1],154.93 µg·h/mL
same,NOAEL,"[2]; 20, 60, 200 mg/kg/day oral gavage",could not be established
same,liver enzymes,[2]; all dose groups,increased liver enzymes
same,liver histology finding,[2]; all dose groups,dose-related hepatocellular centrilobular hypertrophy
same,deaths of main study animals due to treatment-related immunocompromise,[3]; 60 mg/kg daily,3
same,liver findings in female rats,"[3]; 60 mg/kg, female",biliary cysts and increased gamma-glutamyl transferase (GGT) levels
same,liver findings,[3]; ≥20 mg/kg,hemosiderin deposition and necrotizing inflammation
same,AUC0-12 clinical exposure cited in the label,[4],77.465 µg·h/mL
same,AUC(0-t),clinical,155 µg·h/mL

# Source: US11679110B2, “Methods of treating disorders using CSF1R inhibitors” (Deciphera Pharmaceuticals, LLC, priority 2018, dated 2023)
